Results as given in ChEMBL document CHEMBL3217559, “Monocyte and macrophage selective anti-inflammatory kinase inhibitors” (Medchemcomm, 2012).

Experiments:
Blood = assay: Inhibition of LPS-induced TNFalpha production in human whole blood; assay type: functional, tissue-based
MAP kinase p38 [1] = molecular target: T1, MAP kinase p38 (Homo sapiens, UniProt O15264+Q15759+Q16539+P53778); assay: Inhibition of p38 MAP kinase-mediated MAPKAPK2 phosphorylation in human Hut78 cells after 4 hrs by chemiluminescence assay; assay type: cell-based
MAP kinase p38 [2] = molecular target: T1, MAP kinase p38; assay: Inhibition of p38 MAP kinase-mediated MAPKAPK2 phosphorylation in human U937 cells after 4 hrs by chemiluminescence assay; assay type: cell-based; conditions: u-937
[3] = molecular target: Mitogen-activated protein kinase 14 (Homo sapiens, UniProt Q16539); assay: Inhibition of p38 MAP kinase alpha (unknown origin) after 1 hr by Z'-lyte assay
THP-1 = assay: Inhibition of LPS-induced TNFalpha production in human THP1 cells; assay type: functional, cell-based
HuT78 [4] = assay: Drug metabolism in intact human HUT78 cells assessed as N-[2-(4-{6-Amino-5-[(2,4-difluorophenyl)carbonyl]-2-oxopyridin-1(2H)-yl}-3,5 difluorophenyl)ethyl]-L-leucine formation per million cells at 2.5 uM after 6 hrs by LC/MS/MS analysis; assay type: ADME, cell-based; conditions: hut78, 6 h
HuT78 [5] = assay: Drug metabolism in human HUT78 cell lysate assessed as N-[2-(4-{6-Amino-5-[(2,4-difluorophenyl)carbonyl]-2-oxopyridin-1(2H)-yl}-3,5 difluorophenyl)ethyl]-L-leucine formation at 2.5 uM after 10 to 80 mins by LC/MS/MS analysis; assay type: ADME, cell-based; conditions: hut78, 2.5 µM
Liver carboxylesterase 1 [6] = molecular target: T2, Liver carboxylesterase 1 (Homo sapiens, UniProt P23141); assay: Drug metabolism in intact human U937 cells assessed as human CE1-mediated N-[2-(4-{6-Amino-5-[(2,4-difluorophenyl)carbonyl]-2-oxopyridin-1(2H)-yl}-3,5 difluorophenyl)ethyl]-L-leucine formation per million cells at 2.5 uM after 6 hrs by LC/MS/MS analysis; assay type: ADME, cell-based; conditions: u-937, 6 h
T2 sequence (P23141 whole entry): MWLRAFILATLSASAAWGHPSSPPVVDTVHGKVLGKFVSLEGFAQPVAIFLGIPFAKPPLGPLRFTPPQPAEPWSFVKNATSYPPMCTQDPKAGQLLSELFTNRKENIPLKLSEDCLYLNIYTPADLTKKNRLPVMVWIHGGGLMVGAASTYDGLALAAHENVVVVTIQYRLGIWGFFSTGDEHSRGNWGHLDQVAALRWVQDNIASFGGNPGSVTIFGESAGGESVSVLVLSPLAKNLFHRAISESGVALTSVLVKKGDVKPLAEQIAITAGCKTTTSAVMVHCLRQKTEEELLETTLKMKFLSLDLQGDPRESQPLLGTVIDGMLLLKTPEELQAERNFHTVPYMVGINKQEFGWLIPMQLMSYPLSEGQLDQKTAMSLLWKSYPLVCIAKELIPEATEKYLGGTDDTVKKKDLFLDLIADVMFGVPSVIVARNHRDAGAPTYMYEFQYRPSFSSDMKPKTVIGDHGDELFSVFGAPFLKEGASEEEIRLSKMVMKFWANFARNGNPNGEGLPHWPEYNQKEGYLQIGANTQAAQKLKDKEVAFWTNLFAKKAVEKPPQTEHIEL

Liver carboxylesterase 1 [7] = molecular target: T2, Liver carboxylesterase 1; assay: Drug metabolism in human U937 cell lysate assessed as human CE1-mediated N-[2-(4-{6-Amino-5-[(2,4-difluorophenyl)carbonyl]-2-oxopyridin-1(2H)-yl}-3,5 difluorophenyl)ethyl]-L-leucine formation at 2.5 uM after 10 to 80 mins by LC/MS/MS analysis; assay type: ADME, cell-based; conditions: u-937, 2.5 µM
HuT78 [8] = assay: Drug metabolism in human HUT78 cell lysate assessed as 5-(4-{6-Amino-5-[(2,4-difluorophenyl)carbonyl]-2-oxopyridiny1(2H)-yl}-3,5-difluorophenoxy)-L-norvaline formation at 2.5 uM after 10 to 80 mins by LC/MS/MS analysis; assay type: ADME, cell-based; conditions: hut78, 2.5 µM
HuT78 [9] = assay: Drug metabolism in intact human HUT78 cells assessed as 5-(4-{6-Amino-5-[(2,4-difluorophenyl)carbonyl]-2-oxopyridiny1(2H)-yl}-3,5-difluorophenoxy)-L-norvaline formation per million cells at 2.5 uM after 6 hrs by LC/MS/MS analysis; assay type: ADME, cell-based; conditions: hut78, 6 h
Liver carboxylesterase 1 [10] = molecular target: T2, Liver carboxylesterase 1; assay: Drug metabolism in human U937 cell lysate assessed as human CE1-mediated 5-(4-{6-Amino-5-[(2,4-difluorophenyl)carbonyl]-2-oxopyridiny1(2H)-yl}-3,5-difluorophenoxy)-L-norvaline formation at 2.5 uM after 10 to 80 mins by LC/MS/MS analysis; assay type: ADME, cell-based; conditions: u-937, 2.5 µM
Liver carboxylesterase 1 [11] = molecular target: T2, Liver carboxylesterase 1; assay: Drug metabolism in intact human U937 cells assessed as human CE1-mediated 5-(4-{6-Amino-5-[(2,4-difluorophenyl)carbonyl]-2-oxopyridiny1(2H)-yl}-3,5-difluorophenoxy)-L-norvaline formation per million cells at 2.5 uM after 6 hrs by LC/MS/MS analysis; assay type: ADME, cell-based; conditions: u-937, 6 h

Chain of Mitogen-activated protein kinase 14 (Q16539 whole entry): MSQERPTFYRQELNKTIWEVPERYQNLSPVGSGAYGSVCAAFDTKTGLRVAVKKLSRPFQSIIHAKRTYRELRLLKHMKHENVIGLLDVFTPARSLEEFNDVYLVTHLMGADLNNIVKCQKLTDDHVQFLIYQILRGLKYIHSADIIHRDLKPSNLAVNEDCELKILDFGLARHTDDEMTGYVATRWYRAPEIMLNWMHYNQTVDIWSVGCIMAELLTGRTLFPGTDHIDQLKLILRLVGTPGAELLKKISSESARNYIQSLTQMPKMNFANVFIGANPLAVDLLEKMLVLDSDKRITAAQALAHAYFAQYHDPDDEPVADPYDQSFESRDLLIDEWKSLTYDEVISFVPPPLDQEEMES

| IC50 (Blood) | IC50 (MAP kinase p38 [1]) | IC50 (MAP kinase p38 [2]) | IC50 [3] | IC50 (THP-1) | Drug metabolism (HuT78 [4]) | Drug metabolism (HuT78 [5]) | Drug metabolism (Liver carboxylesterase 1 [6]) | Drug metabolism (Liver carboxylesterase 1 [7]) | Drug metabolism (HuT78 [8]) | Drug metabolism (HuT78 [9]) | Drug metabolism (Liver carboxylesterase 1 [10]) | Drug metabolism (Liver carboxylesterase 1 [11]) | Structure (SMILES) |
| --- | --- | --- | --- | --- | --- | --- | --- | --- | --- | --- | --- | --- | --- |
| 182 nM | 10 nM | 10 nM | 1.86 nM | 1.5 nM |  |  |  |  |  |  |  |  | Nc1c(C(=O)c2ccc(F)cc2F)ccc(=O)n1-c1c(F)cccc1F |
| 57.5 nM | 73 nM | 0.65 nM | 273 nM | 0.74 nM | 0.5 ng | < 20 pg/mL/min | 606 ng | 3036 pg/mL/min |  |  |  |  | CC(C)C[C@H](NCCc1cc(F)c(-n2c(N)c(C(=O)c3ccc(F)cc3F)ccc2=O)c(F)c1)C(=O)OC1CCCC1 |
| 28.8 nM | 1 nM | 1 nM | 6.5 nM | 1.4 nM |  |  |  |  | 14326 pg/mL/min | 727 ng | 10613 pg/mL/min | 1407 ng | Nc1c(C(=O)c2ccc(F)cc2F)ccc(=O)n1-c1c(F)cc(OCCC[C@H](N)C(=O)OC2CCCC2)cc1F |
|  |  |  | 1.2 nM |  |  |  |  |  |  |  |  |  | CC(C)C[C@H](NCCc1cc(F)c(-n2c(N)c(C(=O)c3ccc(F)cc3F)ccc2=O)c(F)c1)C(=O)O |
|  |  |  | 1 nM |  |  |  |  |  |  |  |  |  | Nc1c(C(=O)c2ccc(F)cc2F)ccc(=O)n1-c1c(F)cc(OCCC[C@H](N)C(=O)O)cc1F |
